In publication PMC8086144, “A novel peptide antagonist of the human growth hormone receptor” (The Journal of Biological Chemistry, 2021):

Molecular target: T1, mouse GHR (Mus musculus, UniProt P16882)
T1 construct: the mouse L fibroblasts express high levels of mouse GHR; host or cells: mouse L fibroblasts
T1 sequence (P16882 25-650): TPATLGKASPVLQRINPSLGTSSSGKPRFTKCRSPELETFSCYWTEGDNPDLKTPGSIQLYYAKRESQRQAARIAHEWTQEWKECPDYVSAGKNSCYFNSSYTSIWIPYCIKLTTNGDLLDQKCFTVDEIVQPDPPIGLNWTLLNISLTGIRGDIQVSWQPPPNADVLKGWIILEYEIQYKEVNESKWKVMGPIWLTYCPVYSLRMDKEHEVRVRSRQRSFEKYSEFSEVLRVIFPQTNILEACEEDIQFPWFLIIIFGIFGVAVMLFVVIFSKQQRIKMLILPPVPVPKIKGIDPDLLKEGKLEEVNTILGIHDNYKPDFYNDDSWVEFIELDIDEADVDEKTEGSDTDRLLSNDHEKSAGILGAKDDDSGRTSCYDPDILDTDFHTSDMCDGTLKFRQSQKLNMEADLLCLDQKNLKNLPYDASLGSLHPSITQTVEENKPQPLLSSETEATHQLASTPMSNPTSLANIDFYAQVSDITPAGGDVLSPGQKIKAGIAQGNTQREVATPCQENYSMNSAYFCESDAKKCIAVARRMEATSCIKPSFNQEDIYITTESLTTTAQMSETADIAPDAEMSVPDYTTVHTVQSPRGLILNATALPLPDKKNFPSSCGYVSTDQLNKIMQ
Test: hGH-mediated pSTAT5 in L (mouse fibroblast) cells, Western blot
Assay type: cell-based
Settings: 200 nM S1H with 2.5 nM hGH, 20 min, Western blot densitometry, n = 3
Procedure: SK-MEL-28, MALME-3M, and T84 cells were grown and maintained in Eagle's Minimal Essential Medium. IM9 and L cells were grown in RPMI-1640 media and Dulbecco's modified Eagle's medium, respectively. All growth media was supplemented with 10% fetal bovine serum and 1× antibiotic-antimycotic […] solution. Cells were grown at 37 °C under a 5% CO2 atmosphere in a humidified incubator, and growth media was replaced every 48 h during incubation. No hGH was present in or added to the growth media unless specifically indicated. […]
Following treatment, the cells were harvested at the indicated time points, and the total protein was extracted. […] Sample protein concentration was quantified using a Bradford assay with bovine serum albumin as the protein standard. Absorbance at 595 nm was measured using a Spectramax 250 multimode plate reader (Molecular Devices) and processed using SoftmaxPro v4.7.1 software.
Cytosolic fractions from treated cells were thawed on ice, and 80 μg protein was loaded onto polyacrylamide gels for separation by SDS-PAGE. […] Chemiluminescence signals were detected using a GelDoc (BioRad) fluorescence imager. […] Percent inhibition was then measured by subtracting the pSTAT5 band intensity in each lane from the pSTAT5 band intensity of hGH-treated samples. […]

## CC[C@H](C)[C@H](NC(=O)[C@H](Cc1ccc(O)cc1)NC(C)=O)C(=O)N1CCC[C@H]1C(=O)N[C@@H](CCCCN)C(=O)N[C@@H](CCC(=O)O)C(=O)N[C@@H](CCC(N)=O)C(=O)N[C@@H](CCCCN)C(=O)N[C@@H](Cc1ccc(O)cc1)C(=O)N[C@@H](CO)C(=O)N[C@@H](Cc1ccccc1)C(=O)N[C@@H](CC(C)C)C(=O)N[C@@H](CCC(N)=O)C(=O)N[C@@H](CC(N)=O)C(=O)N1CCC[C@H]1C(=O)N[C@@H](CCC(N)=O)C(=O)N[C@H](C(N)=O)[C@@H](C)O [S1H]
  suppression of hGH-mediated pSTAT5: 36%
